Values joined by “and” are separate entries in the source; they are usually repeats but may differ in a detail not shown here. Equal entries are not always repeated. *1 amine or outer side, *2 acyl side, *3 side chain or, on linkers, in order; H or OH if unused. Where a SMILES comes first, the peptide text is derived from it. Bridges are numbered along the chain shown (N, C = ends). Roman numbers before positions name the chains, in order. [ ]: non-standard residue; d: D form. Actinocin(9to1) = Cc1c2oc3c(C)ccc(C(=O)[*:1])c3nc-2c(C(=O)[*:2])c(N)c1=O; NMeV = CN[C@H](C(=O)O)C(C)C; Sar = CNCC(=O)O
Key:
MRC-5 cells [1] = assay: HGF production in MRC-5 cells with actinomycin D (RNA synthesis inhibitor); assay type: cell-based, Human; conditions: for Amount of HGF Produced (in Medium): control = 100%
Protocol: (3) Five-hundred microliters of MRC-5 cells (CCL171: manufactured by DAINIPPON PHARMACEUTICAL CO., LTD., code. 02-021) suspended in a DME medium containing 10% fetal bovine serum so as to have a concentration of 1 × 10^5 cells/ml were added into each well of a 48-well cell culture plate. The cells were cultured at 37°C for 24 hours in the presence of 5% CO2, and then the medium was exchanged for a DME medium containing 1% fetal bovine serum. Thereafter, actinomycin D (RNA synthesis inhibitor: manufactured by Sigma) was added thereto so as to have a final concentration of 0, 0.1, or 1 µg/ml, and a sample to be analyzed was further added thereto. The cells were then cultured for 24 hours. This medium was collected, and the amount of HGF in the medium was determined by using Quantikine Human Hepatocyte Growth Factor (HGF) ELISA Kit (manufactured by Funakoshi, Code. RS-0641-00). As to the amount of HGF produced, negative control was regarded as 100%. As to the inhibitory ratio, the inhibitory ratio (%) of the actinomycin D-added fraction was calculated on the basis of the amount of HGF produced when the fucoidan was added alone at each concentration. The fucoidan derived from Kjellmaniella crassifolia described in item (1) of Reference Example 1 was added so as to have a final concentration of 1, 10 or 100 µg/ml. As the negative control, distilled water was added in the same volume as that of the sample. Each experiment was carried out twice, and an average value was taken. […] It was clarified from these findings that RNA synthesis was probably involved in the induction of HGF production by the fucoidan, not simply freeing of HGF from the cells.
(4) Five-hundred microliters of MRC-5 cells (CCL171: manufactured by DAINIPPON PHARMACEUTICAL CO., LTD., code. 02-021) suspended in a DME medium containing 10% fetal bovine serum so as to have a concentration of 1 × 10^5 cells/ml were added into each well of a 48-well cell culture plate. The cells were cultured at 37°C for 24 hours in the presence of 5% CO2, and then the medium was exchanged for a DME medium containing 1% fetal bovine serum. Thereafter, actinomycin D (RNA synthesis inhibitor: manufactured by Sigma) was added thereto so as to have a final concentration of 0, 0.1, or 1 µg/ml, and a sample was further added thereto. The cells were then cultured for 24 hours. This medium was collected, and the amount of HGF in the medium was determined by using Quantikine Human Hepatocyte Growth Factor (HGF) ELISA Kit (manufactured by Funakoshi, Code. RS-0641-00). In addition, the cells were washed with PBS, and thereafter dissolved in 500 µl of a cytolytic buffer (50 mM HEPES, pH 7.4; 10 mM EDTA, 0.1% Triton x 100; 1 mM PMSF; 1 µg/ml pepstatin A and 1 µg/ml, leupeptin). Further, in order to completely dissolve the cells, the mixture was subjected to sonication treatment, and then centrifuged, to give a supernatant (cell extract). The amount of HGF in the cell was determined in the same manner as that of the concentration of HGF in the medium. As to the amount of HGF produced, negative control was regarded as 100%. As to the inhibitory ratio, the inhibitory ratio (%) of the actinomycin D-added fraction was calculated on the basis of the amount of HGF produced when 7-12SFd-F was added alone at each concentration. 7-12SFd-F was added so as to have a final concentration of 1,10 or 100 µg/ml. As the negative control, distilled water was added in the same volume as that of the sample. Each experiment was carried out three times, and an average value was taken. […] It was clarified from these findings that RNA synthesis was probably involved in the induction of HGF production by 7-12SFd-F, not simply freeing of HGF from the cells.

NHDF cells = assay: HGF in medium of NHDF cells with or without minoxidil; assay type: cell-based, human
Protocol: The cells were cultured for 24 hours. […] Also, the same steps were carried out for the group added with only the sample without adding minoxidil. The medium was collected, and the amount of HGF in the medium was determined by using Quantikine Human Hepatocyte Growth Factor (HGF) ELISA Kit. […] As a negative control, distilled water was added in the same volume as that of the sample. Each experiment was carried out three times, and an average value was taken.

MRC-5 cells [2] = assay: synergistic effect on HGF production with PGE1 or IL-1α in MRC-5 cells; assay type: cell-based, Human; conditions: control = 100%
Source text: (1) Synergistic effect for the induction action for HGF production of the fucoidan derived from Kjellmaniella crassifolia described in item (1) of Reference Example 1 with prostaglandin or IL-1 was studied in the same manner as that in item (1) of Example 1.
Specifically, the synergistic effect for the induction activity for HGF production was studied by simultaneously adding the fucoidan and PGE1 (manufactured by Wako Pure Chemicals Industries, Ltd.) or IL-1α (manufactured by Genzyme).
The fucoidan sample was added so as to have a final concentration of 1, 10 or 100 µg/ml. PGE1 was added so as to have a concentration of 0.1 or 1 µM, the IL-1α was added so as to have a concentration of 1 ng/ml. As a control, distilled water was added in same volume as that of the sample.
The synergistic effect was studied in comparison to the amount produced of a case where the fucoidan sample or PGE1 or IL-1α was added alone.
In Tables 35 and 36, the amount of HGF produced of the control was regarded as 100%. Each experiment was carried out twice, and an average value was taken. […]
(2) Synergistic effect for the induction action for HGF production of 7-12SFd-F of Reference Example 2 with prostaglandin or IL-1 was studied in the same manner as that in item (1) of Example 2. […]

MRC-5 cells [3] = assay: mRNA of HGF in MRC-5 cells (RT-PCR); assay type: cell-based; conditions: 7-12SFd-F 100 µg/ml, LM Heparin 1 µg/ml or PGE1 1 µM; Hours 0 to 24, compared to control
Protocol: MRC-5 cells (CCL 171: manufactured by DAINIPPON PHARMACEUTICAL CO., LTD., code. 02-021) cultured in a DMEM medium containing 10% fetal bovine serum were suspended in the DMEM medium containing 10% fetal bovine serum so as to have a concentration of 2.5 × 10^5 cells/ml, and added into each well of a 6-well cell culture plate. The cells were cultured at 37°C for 24 hours in the presence of 5% CO2. Thereafter, the medium was exchanged for a DMEM medium containing 1% fetal bovine serum, and the cells were further cultured for 22 hours. Thereafter, the medium was exchanged for each medium added with 7-12SFd-F prepared in item (3) of Reference Example 2 so as to have a final concentration of 100 µg/ml, LM Heparin (manufactured by Celsus Laboratories) so as to have a final concentration of 1 µg/ml, or prostaglandin E1 (PGE1) (manufactured by Wako Pure Chemicals Industries, Ltd.) dissolved in dimethyl sulfoxide (DMSO) so as to have a final concentration of 1 µM. As a medium for control group, the medium added with DMSO was used. Here, the solvent of each additive mentioned above was added so as to have a concentration of 1% in all cases. […] In addition, in order to carry out a semi-quantitative experiment, â-actin, a housekeeping gene, was also detected. […] In all of the samples, mRNA of HGF was detected. […]

## Cc1c2oc3c(C)ccc(C(=O)N[C@@H]4C(=O)N[C@H](C(C)C)C(=O)N5CCC[C@H]5C(=O)N(C)CC(=O)N(C)[C@@H](C(C)C)C(=O)O[C@@H]4C)c3nc-2c(C(=O)N[C@@H]2C(=O)N[C@H](C(C)C)C(=O)N3CCC[C@H]3C(=O)N(C)CC(=O)N(C)[C@@H](C(C)C)C(=O)O[C@@H]2C)c(N)c1=O [Actinomycin D, actinomycin D] (I: T[dV]P[Sar][NMeV] / II: T[dV]P[Sar][NMeV]; ester I:1-I:C, II:1-II:C; linker I:N-II:N via Actinocin(9to1))
MRC-5 cells [1]; Actinomycin D 0.1 µg/ml alone
  Amount of HGF Produced (Total in Cells and in Medium): 61%
  Inhibitory Ratio Where Actinomycin D Non-Added Group Was Regarded as 100% (Total in Cells and in Medium): 39%
  Inhibitory Ratio Where Actinomycin D Non-Added Group Was Regarded as 100% (in Medium): 21% and 24%
  Amount of HGF Produced (in Medium): 79% and 76%
MRC-5 cells [1]; Actinomycin D 1 µg/ml alone
  Amount of HGF Produced (Total in Cells and in Medium): 59%
  Inhibitory Ratio Where Actinomycin D Non-Added Group Was Regarded as 100% (Total in Cells and in Medium): 41%
  Inhibitory Ratio Where Actinomycin D Non-Added Group Was Regarded as 100% (in Medium): 17% and 20%
  Amount of HGF Produced (in Medium): 83% and 80%

## Nc1cc(N2CCCCC2)nc(N)[n+]1[O-] [Minoxidil, minoxidil]
NHDF cells; Minoxidil 10 µg/ml alone
  Concentration of HGF in Medium: 126.04 pg/mL
NHDF cells; Minoxidil 100 µg/ml alone
  Concentration of HGF in Medium: 148.83 pg/mL and 137.20 pg/mL

## CCCCC[C@H](O)/C=C/[C@H]1[C@H](O)CC(=O)[C@@H]1CCCCCCC(=O)O [PGE1, prostaglandin E1]
MRC-5 cells [2]; PGE1 0.1 µM alone
  Amount of HGF Produced: 119% and 123%
MRC-5 cells [2]; PGE1 1 µM alone
  Amount of HGF Produced: 157% and 170%
MRC-5 cells [3]
  induction of mRNA of HGF: found
